Measured values reported in BindingDB's records for doi:10.7270/Q24F1P57 (Nmmlsc, 2009).

target: Induced myeloid leukemia cell differentiation protein Mcl-1 (Homo sapiens, UniProt Q07820); assay: regulators of Bim-Mcl-1 interaction, confirmation, biochemical, bead-based flow cytometry, multiplex, HTS hits (AID 2086); conditions: not given
Sequence (Q07820 whole entry): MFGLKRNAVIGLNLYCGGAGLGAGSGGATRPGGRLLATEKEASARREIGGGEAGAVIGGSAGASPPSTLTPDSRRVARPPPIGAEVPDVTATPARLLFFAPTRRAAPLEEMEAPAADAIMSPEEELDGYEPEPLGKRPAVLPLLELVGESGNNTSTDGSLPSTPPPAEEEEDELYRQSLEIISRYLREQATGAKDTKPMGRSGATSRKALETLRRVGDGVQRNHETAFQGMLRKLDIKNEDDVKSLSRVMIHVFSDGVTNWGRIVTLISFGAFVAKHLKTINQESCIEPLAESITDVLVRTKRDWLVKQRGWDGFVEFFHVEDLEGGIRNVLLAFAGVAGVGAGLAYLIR

Question: For Cc1ccc(C=NNC(=O)CSc2nnc(-c3ccc(Cl)cc3)n2-c2ccccc2)o1 [SMR000218122], which EC50 is on record?
Answer: The EC50 was 7.75 µM.

same assay, conditions: inactive by the depositor's call

Question: O=C(NCc1ccccc1)c1ccc2nc(-c3ccco3)c(-c3ccco3)nc2c1 [2,3-bis(furan-2-yl)-N-(phenylmethyl)quinoxaline-6-carboxamide] was tested. Which EC50 did it give?
Answer: Its EC50 is 16 µM.

Question: COc1ccc(N2C(=O)C(Cl)=C(Oc3cccc(OC)c3)C2=O)cc1 [3-chloro-4-(3-methoxyphenoxy)-1-(4-methoxyphenyl)-1H-pyrrole-2,5-dione] was tested. Which EC50 did it give?
Answer: Its EC50 is 1.65 µM.

Question: CNC1CCC(Br)CC(C(=O)C=Cc2cccc(OC)c2OC)C1=O (centres undefined) [4-bromo-2-[(E)-3-(2,3-dimethoxyphenyl)-1-oxoprop-2-enyl]-7-(methylamino)-1-cycloheptanone] was tested. Which EC50 did it give?
Answer: The EC50 was 37.4 µM.

Question: How did the EC50 turn out when COc1cc(/N=C2\SSNC2Cl)c(OC)cc1Cl (centres undefined) [4-chloro-N-(4-chloro-2,5-dimethoxyphenyl)-5-dithiazolidinimine] was run?
Answer: Its EC50 is 21.5 µM.

Question: How did the EC50 turn out when Cc1ccc(-c2nc3c(c(=O)[nH]c(=O)n3Cc3ccccc3)n2C)o1 [7-methyl-8-(5-methyl-2-furanyl)-3-(phenylmethyl)purine-2,6-dione] was run?
Answer: Its EC50 is 34.2 µM.

Question: With O=C1NC(=O)C2(Cc3c(nc4ccccn4c3=O)N3CCCCCC32)C(=O)N1Cc1ccccc1 (centres undefined) [MLS000083668] as the compound, how does the EC50 read?
Answer: Its EC50 is 3.18 µM.

Question: COc1ccc(CCNC(=O)c2ccc3nc(-c4ccco4)c(-c4ccco4)nc3c2)cc1OC [N-[2-(3,4-dimethoxyphenyl)ethyl]-2,3-di-2-furylquinoxaline-6-carboxamide] was tested. Which EC50 did it give?
Answer: The EC50 was 14.8 µM.

Question: How did the EC50 turn out when Cc1cc2nn(-c3cccc4ccccc34)nc2cc1N [SMR000076237] was run?
Answer: Its EC50 is 2.25 µM.
